In ChEMBL document CHEMBL4616593, “Formaldehyde-activated WEHI-150 induces DNA interstrand crosslinks with unique structural features” (Bioorg Med Chem, 2020):
Calls of active or inactive are those of the source. The rule behind the calls is not given here.

How the values were obtained:
Assay type in all cases: nucleic-acid assay
DNA [1] = assay: Stabilization of [32P]-labelled dsDNA (unknown origin) assessed as drug-DNA adduct formation at 5 uM in presence of formaldehyde incubated for 12 hrs by phosphorimaging analysis relative to control
DNA [2] = assay: Induction of transcriptional blockage of 512 bp DNA fragment (unknown origin) at 2.5 to 10 uM incubated for 4 hrs in presence of formaldehyde using [alpha-32P]UTP by phosphorimaging analysis
DNA [3] = assay: Stabilization of dsBE67 oligonucleotide (unknown origin) assessed as drug-DNA adduct formation at 5 to 50 uM incubated for 4 hrs in presence of formaldehyde using [gamma-32P]ATP by phosphorimaging analysis relative to control
DNA [4] = assay: Stabilization of [32P]-labelled dsDNA (unknown origin) assessed as drug-DNA adduct formation incubated for 12 hrs in presence of formaldehyde by phosphorimaging analysis
DNA [5] = assay: Stabilization of dsBE15 oligonucleotide (unknown origin) assessed as drug-DNA adduct formation at 5 to 50 uM incubated for 4 hrs in presence of formaldehyde using [gamma-32P]ATP by phosphorimaging analysis
DNA [6] = assay: Stabilization of dsBE12 oligonucleotide (unknown origin) assessed as drug-DNA adduct formation at 5 to 50 uM incubated for 4 hrs in presence of formaldehyde using [gamma-32P]ATP by phosphorimaging analysis relative to control
DNA [7] = assay: Stabilization of dsBE17 oligonucleotide (unknown origin) assessed as drug-DNA adduct formation at 5 to 50 uM incubated for 4 hrs in presence of formaldehyde using [gamma-32P]ATP by phosphorimaging analysis
DNA [8] = assay: Stabilization of [32P]-labelled dsDNA (unknown origin) assessed as drug-DNA adduct formation by measuring residual dsDNA level at 6 uM measured after 16 hrs in presence of formaldehyde by phosphorimaging analysis relative to control
DNA [9] = assay: Stabilization of [32P]-labelled dsDNA (unknown origin) assessed as drug-DNA adduct formation by measuring adduct half life incubated for 12 hrs in presence of formaldehyde by phosphorimaging analysis
DNA [10] = assay: Binding affinity to dsBE45 oligonucleotide (unknown origin) assessed as drug-DNA adduct formation at 5 to 50 uM incubated for 4 hrs in presence of formaldehyde using [gamma-32P]ATP by phosphorimaging analysis
DNA [11] = assay: Stabilization of [32P]-labelled dsDNA (unknown origin) assessed as drug-DNA adduct formation by measuring residual dsDNA level at 2.5 uM measured after 16 hrs in presence of formaldehyde by phosphorimaging analysis relative to control
DNA [12] = assay: Induction of transcriptional blockage of 512 bp DNA fragment (unknown origin) at 2.5 uM incubated for 4 hrs in presence of formaldehyde using [alpha-32P]UTP by phosphorimaging analysis
DNA [13] = assay: Induction of transcriptional blockage of 512 bp DNA fragment (unknown origin) assessed as loss of full length transcript comprising 379 nucleotide at 5 uM incubated for 4 hrs in presence of formaldehyde using [alpha-32P]UTP by phosphorimaging analysis
DNA [14] = assay: Induction of transcriptional blockage of 512 bp DNA fragment (unknown origin) assessed as loss of full length transcript comprising 379 nucleotide at 10 uM incubated for 4 hrs in presence of formaldehyde using [alpha-32P]UTP by phosphorimaging analysis relative to control
DNA [15] = assay: Stabilization of dsBE15 oligonucleotide (unknown origin) assessed as drug-DNA adduct formation at 50 uM incubated for 4 hrs in presence of formaldehyde using [gamma-32P]ATP by phosphorimaging analysis relative to control
DNA [16] = assay: Stabilization of [32P]-labelled dsDNA (unknown origin) assessed as drug-DNA adduct formation by measuring increase in retardation of dsDNA migration on gel at >3 uM incubated for 12 hrs in presence of formaldehyde by phosphorimaging analysis
DNA [17] = assay: Stabilization of [32P]-labelled dsDNA (unknown origin) assessed as drug-DNA adduct formation at 1 uM to 24 uM incubated for 12 hrs in presence of formaldehyde by phosphorimaging analysis
DNA [18] = assay: Stabilization of [32P]-labelled dsDNA (unknown origin) assessed as drug-DNA adduct formation by measuring adduct half life at 10 uM in presence of formaldehyde by phosphorimaging analysis
DNA [19] = assay: Stabilization of [32P]-labelled dsDNA (unknown origin) assessed as drug-DNA adduct formation by measuring residual dsDNA level at 6 uM measured after 10 days in presence of formaldehyde by phosphorimaging analysis relative to control

NCCNCCNc1ccc(F)c2c1C(=O)c1c(O)ccc(O)c1C2=O
Activity (DNA [1]): 25% | Activity (DNA [2]): Active | Activity (DNA [3]): Active | Activity (DNA [4]): Dose-dependent effect | Activity (DNA [5]): Active | Activity (DNA [6]): Active | Activity (DNA [7]): Active | Activity (DNA [8]): 20% | T1/2 (DNA [9]): 10 h

NCCNCCNc1ccc(NCCNCCN)c2c1C(=O)c1c(O)ccc(O)c1C2=O
Activity (DNA [10]): Active | Activity (DNA [1]): 90 to 100% | Activity (DNA [11]): 20% | Activity (DNA [12]): Active | Activity (DNA [13]): Active | Activity (DNA [3]): Active | Activity (DNA [4]): Dose-dependent effect | Activity (DNA [14]): 100% | Activity (DNA [15]): > 75% | Activity (DNA [6]): < 80% | Activity (DNA [7]): Active | T1/2 (DNA [9]): 12.5 h | Activity (DNA [16]): Active

NCCNc1ccc(NCCN)c2c1C(=O)c1c(O)ccc(O)c1C2=O
Activity (DNA [10]): inactive | Activity (DNA [1]): 30% | Activity (DNA [3]): < 55% | Activity (DNA [17]): Active | Activity (DNA [5]): inactive | Activity (DNA [6]): 30% | Activity (DNA [7]): Active | T1/2 (DNA [9]): 2.3 h

NCCCCCNc1ccc(F)c2c1C(=O)c1ccncc1C2=O
Activity (DNA [1]): < 1% | Activity (DNA [17]): inactive

NCCCCCNc1ccc(F)c2c1C(=O)c1c(O)ccc(O)c1C2=O
Activity (DNA [10]): inactive | Activity (DNA [1]): 50% | Activity (DNA [3]): 10% | Activity (DNA [17]): Active | Activity (DNA [5]): inactive | Activity (DNA [6]): inactive | T1/2 (DNA [18]): 27 h | Activity (DNA [7]): Active | T1/2 (DNA [9]): 24 h

O=C1c2c(O)ccc(O)c2C(=O)c2c(NCCNCCO)ccc(NCCNCCO)c21
Activity (DNA [1]): 5% | Activity (DNA [6]): Active | T1/2 (DNA [9]): 0.42 h

NCCCCCNc1ccc(NCCCCCN)c2c1C(=O)c1c(O)ccc(O)c1C2=O
Activity (DNA [10]): inactive | Activity (DNA [1]): 40% | Activity (DNA [3]): 30% | Activity (DNA [17]): Active | Activity (DNA [5]): inactive | Activity (DNA [6]): 20% | Activity (DNA [19]): 17% | Activity (DNA [7]): Active | T1/2 (DNA [9]): 53 h

NCCCCCNc1ccc(NCCCCCN)c2c1C(=O)c1ccncc1C2=O
Activity (DNA [1]): < 2% | Activity (DNA [17]): inactive
